No end group written: not given here.
T1: human TAS1R2-I191V/TAS1R3-WT (Homo sapiens, UniProt Q7RTX0+Q8TE23, I191V)
T1 construct: expressed in transfected cells; host or cells: HEK293T-Gα16gust44
T1 sequence (Q8TE23 20-839 I191V): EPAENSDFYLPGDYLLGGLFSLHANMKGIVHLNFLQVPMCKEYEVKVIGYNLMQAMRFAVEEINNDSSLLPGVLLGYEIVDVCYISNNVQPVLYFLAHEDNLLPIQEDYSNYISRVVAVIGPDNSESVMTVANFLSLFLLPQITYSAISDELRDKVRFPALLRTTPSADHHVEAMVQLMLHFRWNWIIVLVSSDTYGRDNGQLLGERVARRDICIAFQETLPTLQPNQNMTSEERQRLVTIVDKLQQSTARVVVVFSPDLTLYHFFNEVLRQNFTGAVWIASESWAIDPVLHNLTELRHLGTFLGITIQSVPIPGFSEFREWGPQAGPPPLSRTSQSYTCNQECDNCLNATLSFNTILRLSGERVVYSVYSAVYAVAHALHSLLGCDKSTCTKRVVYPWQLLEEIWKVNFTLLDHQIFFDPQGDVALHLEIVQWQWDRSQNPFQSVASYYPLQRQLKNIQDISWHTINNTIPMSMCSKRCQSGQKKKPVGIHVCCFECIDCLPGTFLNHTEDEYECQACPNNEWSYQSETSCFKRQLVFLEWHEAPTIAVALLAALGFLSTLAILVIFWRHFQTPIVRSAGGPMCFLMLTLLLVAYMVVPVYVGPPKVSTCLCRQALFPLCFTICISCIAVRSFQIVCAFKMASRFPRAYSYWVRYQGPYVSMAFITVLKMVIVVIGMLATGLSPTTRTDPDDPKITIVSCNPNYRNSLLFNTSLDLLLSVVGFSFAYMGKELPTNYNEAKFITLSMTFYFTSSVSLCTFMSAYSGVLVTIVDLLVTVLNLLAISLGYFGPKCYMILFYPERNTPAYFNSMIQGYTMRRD
T1 sequence (Q7RTX0 21-852): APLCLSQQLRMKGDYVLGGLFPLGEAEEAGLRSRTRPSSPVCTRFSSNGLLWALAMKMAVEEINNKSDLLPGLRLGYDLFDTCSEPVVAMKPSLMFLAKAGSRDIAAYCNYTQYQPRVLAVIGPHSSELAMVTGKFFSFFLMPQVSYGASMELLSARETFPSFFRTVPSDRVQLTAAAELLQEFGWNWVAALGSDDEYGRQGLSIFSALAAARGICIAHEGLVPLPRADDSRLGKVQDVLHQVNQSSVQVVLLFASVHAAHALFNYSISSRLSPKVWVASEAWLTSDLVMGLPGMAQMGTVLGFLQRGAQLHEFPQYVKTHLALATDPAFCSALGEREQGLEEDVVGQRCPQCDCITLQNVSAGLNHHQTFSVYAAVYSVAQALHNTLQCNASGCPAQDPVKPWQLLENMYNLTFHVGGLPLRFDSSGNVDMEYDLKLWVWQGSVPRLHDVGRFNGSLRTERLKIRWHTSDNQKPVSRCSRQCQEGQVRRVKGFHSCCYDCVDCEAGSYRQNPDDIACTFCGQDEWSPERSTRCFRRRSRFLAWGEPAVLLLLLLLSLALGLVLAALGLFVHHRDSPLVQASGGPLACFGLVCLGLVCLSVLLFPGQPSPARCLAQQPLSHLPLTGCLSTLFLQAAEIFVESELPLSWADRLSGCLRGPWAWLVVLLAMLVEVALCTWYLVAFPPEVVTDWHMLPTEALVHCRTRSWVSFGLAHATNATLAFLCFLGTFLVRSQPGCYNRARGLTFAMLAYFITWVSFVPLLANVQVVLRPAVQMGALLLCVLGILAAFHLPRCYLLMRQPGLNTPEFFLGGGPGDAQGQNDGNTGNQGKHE


Biological target: T1, human TAS1R2-I191V/TAS1R3-WT
Assay: Calcium mobilisation assay, TAS1R2 variant I191V with TAS1R3-WT
Type: cell-based
Conditions: for Max ΔF/F0: maximal signal amplitude
Description: The coding sequences for TAS1R2 and TAS1R3 were commercially synthesised, and the human codon was optimised for expression in human cells. The coding sequences of human TAS1R2 and TAS1R3 were subcloned and inserted into the mammalian expression vectors pcDNA6/myc-HisA and pcDNA4/myc-HisA (Invitrogen; Thermo Fisher Scientific; Illkirch, France) between the EcoRI and NotI restriction sites, generating the plasmids pcDNA6-TAS1R2 and pcDNA4-TAS1R3, respectively. To increase protein expression in mammalian cells, an upstream start codon was used, which was a sequence called MAX, corresponding to the QBI SP163 element also described in pcDNA4-HisMax (Invitrogen; Thermo Fisher Scientific; Illkirch, France). To measure the expression level of the receptor by immunohistochemistry, we used the FLAG sequence ([…]) in the C-terminal position, which encodes the FLAG tag epitope. SNP variants of TAS1R2 and TAS1R3 were constructed based on […], respectively, using site-directed mutagenesis (Genewiz; Leipzig, Germany).
The HEK293T cells were kindly provided by Jay P. Slack (Givaudan Flavors Corporation; Cincinnati, OH, USA). HEK293T cells stably transfected with Gα16gust44 [43, 67] were seeded in poly-D-lysine-coated clear-bottom black 96-well plates (0.35 × 10^5 cells/well) in high-glucose DMEM supplemented with 2 mM GlutaMAX, 10% dialysed foetal bovine serum with penicillin/streptomycin and G418 (400 μg/mL) at 37 °C and 6.3% CO2 in a humidified atmosphere as previously reported. […] As a negative control, HEK293T cells were mock-transfected with the empty expression vector. After a further 24 h of incubation, the HEK293T cells were washed with C1 buffer (130 mM NaCl, 5 mM KCl, 10 mM HEPES pH 7.4 and 2 mM CaCl2). The 96-well plates containing the cells were then stimulated with sweet-tasting compounds. […] Different concentration ranges were tested depending on the sweet compound injected. The Ca^2+ changes were expressed as fractional changes in fluorescent light intensity: ΔF/F = (F − F0)/F0, where F was the fluorescent light intensity at each point, and F0 was the value of emitted fluorescent light prior to stimulus application. To calculate dose–response relationships, the changes in fluorescence upon stimulus application were averaged, mock-subtracted and baseline-corrected. The dose–response data obtained were adjusted using a 4-parameter logistic equation. The half-maximal effective concentrations (EC50 values) and maximal signal amplitudes were calculated using SigmaPlot software (version 15.0) (Systat Software; San Jose, CA, USA).
For in vitro calcium mobilisation assay performed on hTAS1R2-SNPs, hTAS1R3-SNPs and mTAS1R3-I60T, 6 to 7 concentrations were tested for each sweet compound, plus buffer alone. All concentration–receptor combinations were measured in duplicate, and each experiment was repeated at least 4 times (8 wells/concentration). Results were expressed for each concentration as ΔF/F mean ± SEM and represented as dose–response curves.

| EC50 | R1 = Variant EC50/WT EC50 | Max ΔF/F0 | Molecule |
| --- | --- | --- | --- |
| 109 ± 4.6 µM | 1.4 | 0.73 ± 0.01 | COc1ccc(CCC(=O)c2c(O)cc(O[C@@H]3O[C@H](CO)[C@@H](O)[C@H](O)[C@H]3O[C@@H]3O[C@@H](C)[C@H](O)[C@@H](O)[C@H]3O)cc2O)cc1O [NHDC, neohesperidin dihydrochalcone] |
| 0.84 ± 0.08 µM | 1.0 | 0.64 ± 0.02 | COC(=O)[C@H](Cc1ccccc1)NC(=O)[C@H](CC(=O)O)NCCC(C)(C)C [Neotame] |
| 21 ± 0.4 µM | 1.2 | 1.10 ± 0.01 | C=C1C[C@@]23CC[C@H]4[C@@](C)(CCC[C@@]4(C)C(=O)O[C@@H]4O[C@H](CO)[C@@H](O)[C@H](O[C@@H]5O[C@H](CO)[C@@H](O)[C@H](O)[C@H]5O)[C@H]4O[C@@H]4O[C@H](CO)[C@@H](O)[C@H](O)[C@H]4O)[C@@H]2CC[C@]1(O[C@@H]1O[C@H](CO)[C@@H](O)[C@H](O[C@@H]2O[C@H](CO)[C@@H](O)[C@H](O)[C@H]2O)[C@H]1O[C@@H]1O[C@H](CO)[C@@H](O)[C@H](O)[C@H]1O)C3 [Rebaudioside M, rebaudioside M] |
| 87 ± 7 µM | 1.0 | 0.52 ± 0.02 | OC[C@H]1O[C@H](O[C@]2(CCl)O[C@H](CCl)[C@@H](O)[C@@H]2O)[C@H](O)[C@@H](O)[C@H]1Cl [Sucralose] |
| 7.7 ± 0.9 µM |  |  | thaumatin (protein, Eight disulfides, sweet-tasting plant protein, E957) ATFEIVNRCSYTVWAAASKGDAALDAGGRQLNSGESWTINVEPGTKGGKIWARTDCYFDDSGSGICKTGDCGGLLRCKRFGRPPTTLAEFSLNQYGKDYIDISNIKGFNVPMDFSPTTRGCRGVRCAADIVGQCPAKLKAPGGGCNDACTVFQTSEYCCTTGKCGPTEYSRFFKRLCPDAFSYVLDKPTTVTCPGSSNYRVTFCPTA |

Further lines, the molecule ahead of its results:

| Molecule | EC50 | R1 = Variant EC50/WT EC50 | Max ΔF/F0 |
| --- | --- | --- | --- |
| CC1=CC(=O)NS(=O)(=O)O1 [Acesulfame K, acesulfame K] | 492 ± 30 µM | 0.7 | 0.27 ± 0.01 |
| O=S(=O)(O)NC1CCCCC1 [Cyclamate, cyclamate] | 2020 ± 31 µM |  |  |
| C[C@H](CC[C@@H](O[C@@H]1O[C@H](CO[C@@H]2O[C@H](CO)[C@@H](O)[C@H](O)[C@H]2O)[C@@H](O)[C@H](O)[C@H]1O[C@@H]1O[C@H](CO)[C@@H](O)[C@H](O)[C@H]1O)C(C)(C)O)[C@H]1CC[C@@]2(C)[C@@H]3CC=C4[C@@H](CC[C@H](O[C@@H]5O[C@H](CO[C@@H]6O[C@H](CO)[C@@H](O)[C@H](O)[C@H]6O)[C@@H](O)[C@H](O)[C@H]5O)C4(C)C)[C@]3(C)[C@H](O)C[C@]12C [Mogroside V, mogroside V] | 19.2 ± 1.7 µM | 1.1 | 1.33 ± 0.04 |
| C=C(C)[C@@H]1CC=C(/C=N/O)CC1 [Perillartine, perillartine] | 27.9 ± 0.5 µM | 1.6 | 1.27 ± 0.01 |
| brazzein (QDKCKKVYENYPVSKCQLANQCNYDCKLDKHARSGECFYDEKRNLQCICDYCEY; ends and bridges not checked; cysteine pairing not given here; UniProt P56552 1-54, looked up) [sweet-tasting protein obtained by recombinant production using the yeast Pichia pastoris] |  | 1.7 | 1.12 ± 0.02 |
| thaumatin |  | 1.0 | 0.34 ± 0.02 |
